# Measured values as given in patent publication US20190076439A1, “AMINOPHENOTHIAZINES FOR MODULATING THE NUMBER OF SYNAPSES” (CONSEJO SUPERIOR DE INVESTIGACIONES CIENTIFICAS (CSIC), priority 2015, published 2019).
# Assays:
# [1] = target: T1, interaction between human NCS1 and Ric8a (Homo sapiens, UniProt P62166); experiment: Coimmunoprecipitation interference test of the NCS1/Ric8a interaction in lysate of transfected HEK293 cells; type: biochemical; settings: HEK293 cells transfected with V5-Ric8a and NCS1; lysate incubated with compound; FIG. 2
# T1 construct: The NCS1 construct was subcloned into pCDNA3.1; expressed in transfected cells; host or cells: HEK293
# T1 sequence (P62166 2-190 limits assumed): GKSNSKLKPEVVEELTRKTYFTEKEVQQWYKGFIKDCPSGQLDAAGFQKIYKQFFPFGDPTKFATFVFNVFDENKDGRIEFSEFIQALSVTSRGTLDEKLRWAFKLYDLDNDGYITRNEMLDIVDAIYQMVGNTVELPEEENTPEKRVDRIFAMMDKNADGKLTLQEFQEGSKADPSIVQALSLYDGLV
# Description: The DMSO lane represents a positive control of the interaction.
# In order to check whether the interaction which has been previously detected (Romero-Pozuelo J et al. The guanine-exchange factor Ric8a binds to the Ca^2+ sensor NCS-1 to regulate synapse number and neurotransmitter release. J Cell Sci. 2014 Oct. 1; 127(Pt 19):4246-59) between the Drosophila Frq2 and Ric8a proteins, the coimmunoprecipitation of their human equivalents, NCS1 and Ric8a was tested. Human Ric8a was subcloned into nV5pCDNA3.1. The NCS1 construct was subcloned into pCDNA3.1. The cotransfections were carried out in HEK293 cells using the Superfect® (Qiagen®) reagent and lysed 48 hours later. Before its clarification, the lysates were incubated with the respective compound at 4° C. for the night (12 hours) with and without anti-V5 (Invitrogen®) or anti-NCS1 (Cell Signaling Technology®) antibodies as is indicated in each experiment. As a negative control, immunoprecipitations were carried out with an unrelated antibody. The following antibodies and dilutions were used with the Western blots: rabbit anti-NCS1 (1:1000) and mouse anti-V5 (1:2000). […] The Ric8a immunoprecipitation pulls NCS1 and vice versa. […]
# [2] = target: T2, Drosophila NCS-1 (Frq2) protein (Drosophila melanogaster, UniProt Q9VWX8); experiment: Crystallographic structure of the NCS-1 complex with FD44; type: binding; settings: 1.6 Å dataset, FIG. 4
# T2 sequence (Q9VWX8 1-187): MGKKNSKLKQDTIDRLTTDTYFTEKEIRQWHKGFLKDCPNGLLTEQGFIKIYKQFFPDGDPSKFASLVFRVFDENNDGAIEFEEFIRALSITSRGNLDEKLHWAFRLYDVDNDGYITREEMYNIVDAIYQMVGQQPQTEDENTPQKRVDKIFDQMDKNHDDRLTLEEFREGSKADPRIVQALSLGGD
# From the text: FIG. 4 (A) Representation of the crystallographic structure of the NCS1/FD44 complex. The FD44 molecule is shown in sticks. The 2Fo-Fc map of the small molecule is shown at 1σ. (B) Representation of the electrostatic molecular surface of NCS1 bound to FD44 where the hydrophobic environment of FD44 is observed. (C) Detailed view of the amino acids in contact with FD44. The majority of the interactions are Van der Waals, except a strong hydrogen bond with T92, that is mediated by water molecule (with discontinuous black lines), and three weak hydrogen bonds where a C atom is the hydrogen donor and an O atom is the acceptor. (D) Close-up view of the cavity where FD44 is bound.
# The purified Drosophila NCS-1 (Frq2) protein was dialyzed with water and concentrated to 10 mg ml-1 using a concentrator with a cut membrane of 10 kDa (Vivaspin®). 0.3 mg of FD44 were added to 250 μl of protein sample and incubated for 16 hours at 4° C. The insoluble fraction of the compound was separated by centrifugation. The preliminary crystallization experiments were carried out using the Innovadine® crystallization robot and commercial crystallization kits (Molecular Dimensions®, Qiagen®, Hampton Research® and Jena Bioscience®). […]
# [3] = test system: Drosophila fmr1 mutant and wild type larvae
# From the text: FIG. 3 A) volume of the neuromuscular plate normalized with respect to the wild type. Wt DMSO=wild type larvae grown in medium with DMSO carrier (200 micromolar), wt FD44=larvae grown in medium with FD44 dissolved in DMSO (200 micromolar), dFMRPmutDMSO=mutant larvae for the fmr1 gene grown in medium with DMSO, dFMRPmut FD44=mutant larvae grown in medium with FD44 (200 micromolar). B) Same genotypes computing the synapse number (immunopositive points for the nc82 monoclonal antibody). C) Same genotypes computing the number of collateral branches. D) Representative images of each genotype. Each image is an accumulation of all the confocal planes.
# The mutating in the fmr1 gene corresponds to Fmr1^Δ50M # BL-6930 and the wild type corresponds to the Canton-S strain, all originating from the repository of the Bloomington Drosophila Stock Center. […] Once the medium had cooled, the vials were used normally for placing eggs and growing larvae at 25° C. until reaching the advanced LIII stage.
# Reaching the advanced larva III stage, the animals were surgically processed to expose the neuromuscular junctures (NMJ) following the described method (Martin-Peña et al., Age-independent synaptogenesis by phosphoinositide 3 kinase. J Neurosci. 2006 Oct. 4; 26(40):10199-208). The nc82 antibody is a specific monoclonal for the Bruchpilot protein of Drosophila belonging to the CAST family of vertebrae and forms the presynaptic specialization. It was obtained from the Drosophila Hybridoma Bank (DSHB). The anti-HRP antibody produced in rabbits marks the neuronal membrane and was obtained from Jackson ImmunoResearch. A larval neuromuscular juncture was analyzed up to a total of 8-12 larvae per genotype to avoid growth artefacts. The serialized confocal sections of 1 micrometer thickness were analyzed and quantified using the Imaris® program.
# The larval preparations were stained with the nc82 antibody to visualize the synapse and with the anti-HRP to visualize the membrane of the axon. Lastly, the synapse number was measured in images obtained in confocal microscopy and quantified by means of Imaris® software.
structure (smiles),measurement,setting,value
O=C(CN1CCCCC1)NN1c2ccccc2Sc2ccccc21 [FD44],"inhibition of the interaction between human NCS1 and Ric8a (coimmunoprecipitation, Western blot)",[1],effectively inhibits this interaction
same,binding mode in the NCS-1 crystal complex,[2],inserted in the N-terminal part of the elongated hydrophobic groove
same,neuronal projection volume (volume of the neuromuscular plate),"[3]; fmr1 mutant larvae, 200 micromolar in culture medium, FIG. 3A",reverts the neuronal projection volume to the normal levels of the controls
same,synapse number (nc82 immunopositive points),"[3]; fmr1 mutant larvae, 200 micromolar in culture medium, FIG. 3B",reversion in the mutant which has ingested FD44
same,effect on wild type control (volume of the neuromuscular plate),[3]; in vivo,innocuous for the wild type control
same,collateral branch number (neuritogenesis),"[3]; wild type and fmr1 mutant larvae, 200 micromolar in culture medium, FIG. 3C",does not show any change
